{"source": "patent US4151300A", "about": "“Acetohydroxamic acids” (Laboratoire L. Lafon, priority 1976, dated 1979)", "key": {"rats [1]": {"tested_on": "rats", "experiment": "interaction with apomorphine (stereotype behaviour in rats)", "format": "in vivo", "procedure": "(§1) The following text summarises a part of the results of the tests which were carried out with the products according to the invention, these products (unless otherwise stated) being administered intraperitoneally, in suspension in a gum solution (gum arabic), in a volume of 20 ml/kg in the case of mice and of 5 ml/kg in the case of rats.\nBatches of six rats are each given a subcutaneous injection of apomorphine (0.5 mg/kg) 30 minutes after the administration of CRL 40,373.\nBatches of 6 rats are given a subcutaneous injection of 0.5 mg/kg of apomorphine 30 minutes after the administration of CRL 40,385."}, "rats [2]": {"tested_on": "rats", "experiment": "interaction with amphetamine (stereotypies in rats)", "format": "in vivo", "procedure": "as §1\n30 minutes after the administration of CRL 40,373, amphetamine is injected intraperitoneally at a dose of 2 mg/kg.\nThirty minutes after the administration of CRL 40,385 the rats are given an intraperitoneal injection of 2 mg/kg of amphetamine (6 animals per dose)."}, "mice [3]": {"tested_on": "mice", "experiment": "interaction with oxotremorine (temperature, trembling, peripheral cholinergic symptoms)", "format": "in vivo"}, "mice [4]": {"tested_on": "mice", "experiment": "traction (motor incoordination)", "format": "in vivo, mice (EVIC CEBA strain)", "conditions": "i.p."}, "mice [5]": {"tested_on": "mice", "experiment": "spontaneous motility (actimeter)", "format": "in vivo", "conditions": "i.p.", "procedure": "as §1\nThirty minutes after having been given CRL 40,373, the mice (6 per dose, 12 comparison animals) are placed in an actimeter, where their motility is recorded for half an hour.\nThirty minutes after having been given CRL 40,385, the mice are placed in actimeters where their motility is recorded for half an hour."}, "central nervous system": {"tested_on": "central nervous system", "experiment": "psychopharmacological study / behaviour", "format": "in vivo, mice", "conditions": "mouse, in vivo"}, "rats [6]": {"tested_on": "rats", "experiment": "interaction with methylphenidate (stereotypies)", "format": "in vivo", "conditions": "species not given"}, "man": {"tested_on": "man", "experiment": "clinical use in man", "format": "in vivo"}, "catalepsy": {"tested_on": "catalepsy", "experiment": "catalepsy, alone and after a neuroleptic agent", "format": "in vivo"}, "[7]": {"experiment": "toxicity (isolated mice, intraperitoneal)", "format": "in vivo", "conditions": "mouse, in vivo, ip, isolated mice", "procedure": "as §1"}, "mice [8]": {"tested_on": "mice", "experiment": "toxicity (isolated mice, intraperitoneal)", "format": "in vivo", "conditions": "mice, i.p., at the doses mentioned above (64-1,024 mg/kg)", "procedure": "as §1"}, "[9]": {"experiment": "toxicity in mice in groups", "conditions": "mouse, in vivo, ip", "procedure": "as §1\nThe LD50 for intraperitoneal administration are as follows: […]"}, "mice [10]": {"tested_on": "mice", "experiment": "interaction with reserpine (hypothermia, ptosis)", "format": "in vivo"}, "mice [11]": {"tested_on": "mice", "experiment": "four-plate test", "format": "in vivo, mice (EVIC CEBA strain)", "conditions": "mice, i.p.", "procedure": "as §1\n(§2) The test is carried out on batches of 10 sensitive mice (EVIC CEBA strain), 30 minutes after the administration of CRL 40,373.\n(§3) Batches of 10 mice are subjected to the test thirty minutes after having received CRL 40,385."}, "mice [12]": {"tested_on": "mice", "experiment": "electrical shock (convulsing effects)", "format": "in vivo, mice (EVIC CEBA strain)", "conditions": "mice, i.p., large dose", "procedure": "as §1, §2, §3"}, "mice [13]": {"tested_on": "mice", "experiment": "motility reduced by habituation to a cage (residual motility)", "format": "in vivo", "conditions": "i.p., from 32 mg/kg upwards", "procedure": "as §1\nMice which have remained for 18 hours in the actimeters are given CRL 40,373. They are immediately replaced in their cages and, after a period of half an hour, their motility is recorded for 30 minutes (6 animals per dose, 12 comparison animals).\nAfter remaining for 18 hours in the actimeters, the mice receive CRL 40,385. Immediately afterwards they are replaced in their cage and half an hour afterwards the recording of the motility starts and is continued for 30 minutes."}, "mice [14]": {"tested_on": "mice", "experiment": "motility reduced by hypoxia treatment (motor recovery)", "format": "in vivo", "conditions": "mice, i.p."}, "mice [15]": {"tested_on": "mice", "experiment": "inter-group aggressiveness (number of fights)", "format": "in vivo", "conditions": "mice, i.p.", "procedure": "as §1\nAfter three weeks' residence in each of the halves of a cage divided by an opaque partition, the mice receive CRL 40,373 thirty minutes before being brought together by withdrawing the partition.\nAfter 18 days' residence on either side of a partition separating their cage in the middle, groups of 3 mice receive CRL 40,385 and are brought together half an hour later by withdrawing the partition, and the number of fights which take place in the course of 15 minutes is noted."}, "[16]": {"tested_on": "catalepsy induced by prochlorperazine", "experiment": "anticataleptic effect (prochlorperazine-induced catalepsy)", "format": "in vivo", "conditions": "i.p., 256 mg/kg", "procedure": "CRL 40,385 or amantadine are administered intraperitoneally 4 hours and 30 minutes after the injection of prochlorperazine (12.5 mg/kg administered intraperitoneally). The catalepsy is assessed every 30 minutes by the plug test (9 cm), the four plug test, the test using parallel bars and the test of crossing the paws on the same side."}, "rats [17]": {"tested_on": "rats", "experiment": "prolonged conditioning to take avoiding action (shuttle box)", "format": "in vivo", "excerpt": "Rats placed in a shuttle box are conditioned to avoid an electric shock by changing sides. The shock is preceded by a sound and light stimulus lasting 3 seconds, which ceases when sides are changed or after 8 seconds. The sequence is repeated every 20 seconds. Animals conditioned for several tens of minutes show a percentage of avoidance which is close to 100%. They continue to be subjected to the stimulus […] and gradually they reach a state in which they are no longer able to change sides during the period of 3 seconds during which no shock is delivered.\nAs a first approximation, such an effect can be likened to a resumption of conditioned activity in a tired animal.\nRats placed in a \"shuttle box\" are conditioned to avoid an electric shock lasting 5 seconds, by changing sides. The shock is preceded, for 3 seconds, by a sound and light stimulus which ceases when the rat changes side, or at the end of 8 seconds. The sequence repeats every 20 seconds. […] They continue to be subjected to the stimulus every 20 seconds and gradually they no longer succeed in avoiding the shock.\nCRL 40,438 is then administered and any resumption of the avoidance movements is followed until the effect ceases."}, "[18]": {"tested_on": "awake rats with spontaneous hypertension", "experiment": "hypotensive action in awake rats with spontaneous hypertension", "format": "in vivo", "conditions": "100 mg/kg orally", "procedure": "In the tests reported below, CRL 40,385 was administered in suspension in a solution of gum arabic, in a volume of 2 ml/kg. The hypotensive action was studied in awake rats with spontaneous hypertension. One batch of 7 rats is given 100 mg/kg of CRL 40,385 orally, followed, 2 hours later, by a fresh dose of 100 mg/kg of this product."}}, "note": "“Also recorded” adds a separate entry of the source.", "data": [{"smiles": "O=C(CN1C(=O)NC(c2ccccc2)(c2ccccc2)C1=O)NO", "note": "[CRL 40,382, 3-(5,5-Diphenyl-hydantoinyl)-acetohydroxamic acid]", "values": [{"measurement": "effect of apomorphine (stereotypies)", "setting": "rats [1]; species not given", "value": "does not counteract the effect of apomorphine"}, {"measurement": "amphetamine-induced stereotypies", "setting": "rats [2]; species not given", "value": "antagonism to the stereotypies induced by amphetamine"}, {"measurement": "other effects of amphetamine (hypermotility, group toxicity)", "setting": "rats [2]; species not given", "value": "without altering the other effects of this substance (hypermotility, group toxicity)"}, {"measurement": "effects of oxotremorine", "setting": "mice [3]; mouse, in vivo", "value": "absence of antagonism to the effects of oxotremorine"}, {"measurement": "motor incoordination / incapacity", "setting": "mice [4]", "value": "absence of catalepsy and of motor incapacity"}, {"measurement": "spontaneous motility", "setting": "mice [5]", "value": "moderate hypomotility"}, {"measurement": "psychopharmacological profile / conclusion", "setting": "central nervous system", "value": "antipsychotic activity associated with a moderate sedative effect"}, {"measurement": "effect of methylphenidate (stereotypies)", "setting": "rats [6]", "value": "does not counteract the effect of apomorphine and of methylphenidate"}, {"measurement": "clinical result", "setting": "man; tablet 250 mg, 2 to 3 tablets per day", "value": "used clinically with success as a sedative"}, {"measurement": "cataleptigenic effects of a neuroleptic agent", "setting": "catalepsy; after a preliminary dose of a neuroleptic agent", "value": "boosts the cataleptigenic effects of a preliminary dose of a neuroleptic agent"}, {"measurement": "catalepsy", "setting": "catalepsy; in vivo", "value": "does not in itself cause catalepsy; also recorded: absence of catalepsy"}]}, {"smiles": "O=C(CC(=O)N(c1ccccc1)c1ccccc1)NO", "note": "[CRL 40,385, α-(N,N-Diphenylcarbamoyl)-acetohydroxamic acid]", "values": [{"measurement": "LD50", "setting": "[7]", "value": 1500, "unit": "mg/kg"}, {"measurement": "mortality", "setting": "mice [8]", "value": "no mortality whatsoever"}, {"measurement": "LD50", "setting": "[9]; mice in groups", "value": 1050, "unit": "mg/kg"}, {"measurement": "selectivity ratio", "setting": "[9]; read-out: ratio LD50 (isolated mice)/LD50 (mice in groups)", "value": 1.43}, {"measurement": "apomorphine-induced stereotypies", "setting": "rats [1]; rats, i.p., large dose, apomorphine 0.5 mg/kg s.c.", "value": "increase in the duration of the stereotypies induced by apomorphine"}, {"measurement": "amphetamine-induced stereotypies", "setting": "rats [2]; i.p., 256 mg/kg", "value": "lengthening of the duration of the amphetamine-induced stereotypies"}, {"measurement": "reserpine-induced ptosis", "setting": "mice [10]; i.p.", "value": "does not modify the intensity of the palpebral ptosis induced by reserpine"}, {"measurement": "reserpine-induced hypothermia", "setting": "mice [10]; i.p., 64, 128 and 256 mg/kg, reserpine 2.5 mg/kg i.p.", "value": "moderate antagonism towards reserpine-induced hypothermia"}, {"measurement": "peripheral cholinergic symptoms of oxotremorine", "setting": "mice [3]; mice, i.p.", "value": "does not modify the increase in salivation, lachrymation and defaecation"}, {"measurement": "oxotremorine-induced trembling", "setting": "mice [3]; mice, i.p., 128 mg/kg and above all 512 mg/kg, oxotremorine 0.5 mg/kg i.p.", "value": "a reduction in the intensity of the trembling movements produced by oxotremorine"}, {"measurement": "temperature (oxotremorine-induced hypothermia)", "setting": "mice [3]; mice, i.p., 32 and 128 mg/kg, oxotremorine 0.5 mg/kg i.p.", "value": "very partial antagonism against the hypothermia produced by oxotremorine"}, {"measurement": "number of incorrect moves (four-plate test)", "setting": "mice [11]", "value": "does not produce an increase in the number of incorrect moves"}, {"measurement": "motor incoordination / incapacity", "setting": "mice [4]", "value": "does not cause a major motor deficiency"}, {"measurement": "convulsing effects of the electrical shock", "setting": "mice [12]", "value": "counteracts the convulsing effects of the electrical shock"}, {"measurement": "spontaneous motility", "setting": "mice [5]; mice, 128 and 256 mg/kg", "value": "moderate increase in the spontaneous motor activity"}, {"measurement": "spontaneous motility", "setting": "mice [5]; mice, dose larger than 128 and 256 mg/kg", "value": "effect disappears"}, {"measurement": "motility reduced by habituation to the cage", "setting": "mice [13]", "value": "causes a resumption of activity in animals habituated to their cage"}, {"measurement": "minimal effective dose", "setting": "mice [14]; Mus musculus, ip, read-out: dose at which improvement of motor recovery after hypoxia appears", "value": 32, "unit": "mg/kg"}, {"measurement": "motor recovery after hypoxia/anoxia by pressure reduction", "setting": "mice [14]; 32 mg/kg increasing up to 512 mg/kg", "value": "causes an improvement in the motor recovery of mice"}, {"measurement": "inter-group aggressiveness", "setting": "mice [15]", "value": "reduces the aggressiveness"}, {"measurement": "intensity of anticataleptic effect compared with amantadine", "setting": "[16]", "value": "less intense than that of an 8 times smaller dose of amantadine"}, {"measurement": "cataleptigenic action of prochlorperazine", "setting": "[16]; prochlorperazine 12.5 mg/kg i.p.", "value": "counteracts the cataleptigenic action of prochlorperazine"}, {"measurement": "resumption of avoiding actions (prolonged avoidance test)", "setting": "rats [17]", "value": "causes a resumption of avoiding actions in animals"}, {"measurement": "hypotensive effect", "setting": "[18]", "value": "hypotensive effect"}, {"measurement": "arterial pressure (minimum)", "setting": "[18]; 4 hours after second administration, from 166 mm Hg", "value": 142, "unit": "mm Hg"}, {"measurement": "pulse rate", "setting": "[18]; after first administration, from 364", "value": 334, "unit": "beats/minute"}, {"measurement": "pulse rate change", "setting": "[18]; after second administration", "value": "does not vary"}, {"measurement": "time to minimum arterial pressure", "setting": "[18]; after second administration", "value": 4, "unit": "h"}, {"measurement": "reduction of arterial pressure", "setting": "[18]; after second administration, statistically significant", "value": 13, "unit": "%"}, {"measurement": "average reduction of arterial pressure", "setting": "[18]; first administration", "value": 10, "unit": "%"}, {"measurement": "reduction of pulse rate", "setting": "[18]; first administration, statistically significant", "value": 8, "unit": "%"}, {"measurement": "body temperature effect (product alone)", "setting": "central nervous system", "value": "does not have a hypothermic action"}, {"measurement": "psychopharmacological profile / conclusion", "setting": "central nervous system", "value": "the most marked property is the anti-fatigue activity; also recorded: Some of its effects recall an anti-depressant type of activity, and others recall a psychostimulant type of activity; also recorded: psycho-stimulant properties"}, {"measurement": "clinical result", "setting": "man; tablet or pill 100 mg, 2 to 3 per day", "value": "used clinically with success for anti-fatigue treatment"}]}]}
